Measurements taken from PMC11253624, “Unsaturated fatty acid perturbation combats emerging triazole antifungal resistance in the human fungal pathogen Aspergillus fumigatus” (mBio, 2024).
≈ marks a conversion by molar mass, not a printed value.

Legend:
Cryptococcus neoformans = assay: FIC checkerboard assay MBX-7591 and oleic acid, C. neoformans; format: cell-based
Procedure: Single-treatment controls were completed with 50 µL of media to substitute the volume of the other compound. […] Additional untreated and media-only controls were added to the plate as described above. Incubation of the plates and MIC assessments (individual and in combination) were performed as described above. FIC calculations were done according to the established formula: ∑FIC=MIC combination compound A/MIC individual compound A + MIC combination compound B/MIC individual compound B . Synergy was considered equal or lower than 0.5, and antagonism was considered to be higher than 2. FIC scores reported represent between three and five biological replicates. All antifungal susceptibility testing was done in 96-well plates using RPMI 1640 media buffered with 165 mM of MOPS and pH 7 using NaOH. CLSI-based microbroth dilution assays were done in accordance with M27 ([49]). […] Additionally, an untreated control (100 µL of a stock of 2 × 10^3 spores/mL and 100 µL of media) and a media-only control (200 µL media) were included in the plate. The plate was covered in a Breathe-Eazy membrane to allow for uniform oxygen diffusion throughout the plate and incubated for 24 hours at 35°C (Candida spp.) or 72 hours at 35°C ± 5% CO2 (Cryptococcus neoformans).

Aspergillus fumigatus [1] = assay: FIC checkerboard synergy assay, A. fumigatus; format: cell-based; details: for MIC: Aspergillus fumigatus
Aspergillus fumigatus [2] = assay: CLSI-based microbroth dilution MIC, A. fumigatus strains; details: Aspergillus fumigatus
A. fumigatus CEA10 = assay: Fatty acid profile of 24-hour biofilms by GC-MS; format: cell-based, Aspergillus fumigatus; details: CEA10 24-hour biofilm; MBX-7591 0.58 µg/mL, voriconazole 0.0625 µg/mL

## CCCCCCCC/C=C\CCCCCCCC(=O)O [Oleic acid, oleic acid]
Cryptococcus neoformans; Cryptococcus neoformans, H99, oleic acid alone, 5% CO2
  MIC: > 500 µg/mL
Cryptococcus neoformans; H99, 5% CO2
  MIC OA combination: 31.25 µg/mL
Aspergillus fumigatus [1]; CEA10, oleic acid alone, read-out: MIC OA
  MIC: > 500 µg/mL
Aspergillus fumigatus [1]; CEA10, first line of Table S8 (MBX-7591 9.81 μg/ml)
  MIC OA combination: 7.81 µg/mL
Aspergillus fumigatus [1]; CEA10, second line of Table S8 (MBX-7591 19.63 μg/ml)
  MIC OA combination: 15.63 µg/mL

## C[C@@H](c1ncncc1F)[C@](O)(Cn1cncn1)c1ccc(F)cc1F [Voriconazole]
Aspergillus fumigatus [2]; ATCC46455, read-out: Voriconazole MIC
  MIC: 0.25 to 0.5 µg/mL (≈ 0.716 to 1.43 µM)
Aspergillus fumigatus [2]; read-out: Voriconazole MIC, strain 08-19-02-10 (TR34/L98H)
  MIC: 2 µg/mL (≈ 5.73 µM)
Aspergillus fumigatus [2]; read-out: Voriconazole MIC, strain 08-19-02-46 (TR34/L98H)
  MIC: 2 µg/mL (≈ 5.73 µM)
Aspergillus fumigatus [2]; read-out: Voriconazole MIC, strain 08-19-02-61 (TR34/L98H), Table S6
  MIC: 1 µg/mL (≈ 2.86 µM)
Aspergillus fumigatus [2]; read-out: Voriconazole MIC, strain 08-31-08-91 (TR34/L98H), Table S6
  MIC: 4 µg/mL (≈ 11.5 µM)
Aspergillus fumigatus [2]; read-out: Voriconazole MIC, strain 10-19-02-27 (TR34/L98H)
  MIC: 4 µg/mL (≈ 11.5 µM)
Aspergillus fumigatus [2]; read-out: Voriconazole MIC, strain F11628 (G138C), Table S6
  MIC: > 8 µg/mL
Aspergillus fumigatus [2]; read-out: Voriconazole MIC, strain F15390 (M220T), Table S6
  MIC: 1 µg/mL (≈ 2.86 µM)
Aspergillus fumigatus [1]; read-out: MIC VCZ, strain 08-19-02-61 (TR34/L98H), alone
  MIC: 2 µg/mL
Aspergillus fumigatus [1]; read-out: MIC VCZ, strain 08-31-08-91 (TR34/L98H), alone
  MIC: 4 µg/mL
Aspergillus fumigatus [1]; read-out: MIC VCZ, strain F11628 (G138C), alone
  MIC: > 8 µg/mL
Aspergillus fumigatus [1]; read-out: MIC VCZ, strain F15390 (caf8) (M220T), alone
  MIC: 1 µg/mL
Aspergillus fumigatus [1]; strain CEA10, alone, read-out: MIC VCZ
  MIC: 0.25 to 0.5 µg/mL
Aspergillus fumigatus [1]; strain 08-19-02-61, with MBX-7591
  MIC VCZ in combination: 0.5 µg/mL
Aspergillus fumigatus [1]; strain 08-31-08-91, with MBX-7591
  MIC VCZ in combination: 1 µg/mL
Aspergillus fumigatus [1]; strain CEA10, with MBX-7591, listed as VCZ
  MIC VCZ in combination: 0.0625 to 0.125 µg/mL
Aspergillus fumigatus [1]; strain F11628 (G138C), alone, listed as VCZ
  MIC VCZ: >8 µg/mL
Aspergillus fumigatus [1]; strain F11628, with MBX-7591
  MIC VCZ in combination: 0.5 to 1 µg/mL
Aspergillus fumigatus [1]; strain F15390 (caf8), with MBX-7591
  MIC VCZ in combination: 0.25 µg/mL
Aspergillus fumigatus [1]; with 0.613 µg/mL MBX-7591
  increase in VCZ potency in combination: four to eight times more potent
A. fumigatus CEA10
  C14:0 relative percentage of fatty acids: 0.11 ± 0.0046
  C15:0 relative percentage of fatty acids: 0.39 ± 0.11
  C16:0 (palmitic acid) relative percentage of fatty acids: 18.71 ± 0.25
  C16:1n7 relative percentage of fatty acids: 0.38 ± 0.041
  C17a relative percentage of fatty acids: 0.18 ± 0.15
  C18:0 (stearic acid) relative percentage of fatty acids: 3.06 ± 0.26
  C18:1n7 relative percentage of fatty acids: 0.00 ± 0
  C18:1n9 (oleic acid) relative percentage of fatty acids: 31.26 ± 1.67
  C18:2n6 relative percentage of fatty acids: 45.91 ± 1.99

## OC(Cn1cncn1)(Cn1cncn1)c1ccc(F)cc1F [Fluconazole, fluconazole]
Aspergillus fumigatus [1]; strain CEA10, FLC alone, read-out: MIC Azole (FLC)
  MIC: > 256 µg/mL
Aspergillus fumigatus [1]; strain CEA10, FLC with 0.613 µg/mL MBX-7591
  MIC Azole in combination (FLC): 16 µg/mL
Aspergillus fumigatus [1]; with 0.613 µg/mL MBX-7591
  fold increase in FLC potency: > 16 fold
